Patent US10874743B2, “IRAK degraders and uses thereof” (Kymera Therapeutics, Inc., priority 2017, dated 2020)
Several values for one entry are separate records, joined by “and”; a condition that tells them apart may be missing. Identical values can stand only once. Like-named read-outs stand apart in the source and are kept apart here.

Experiment: Pharmacokinetics in CD-1 mice (plasma concentrations, PK parameters)
Type: in vivo
Experimental: Pharmacokinetics for I-127, I-172 and I-210 were determined in Sprague Dawley rats or CD-1 mice by dosing intravenous (IV), subcutaneous (SC) or per oral (PO) using facility SOPs and sampling plasma at required time points. Species, formulation, route of administration and time points samples are listed below for each compound.
Compounds were extracted from plasma, injected on reverse phase HPLC, eluted with a gradient from 5% to 95% acetonitrile in water and quantified by mass spectrometry with internal standard. Data are expressed in ng compound per mL of plasma.

[1] = mouse (CD1) iv 2 mg/kg, individual Mouse 1-3, 2 mg/kg
[2] = mouse (CD1) po 30 mg/kg, individual Mouse 4-6, 30 mg/kg
[3] = mouse (CD1) sc 30 mg/kg, individual Mouse 7-9, 30 mg/kg

O=C1CCC(N2C(=O)c3cccc(NCCOCCOCCNCc4ccc(-n5cc(NC(=O)c6coc(-c7ccnc(NCC8CC8)c7)n6)c(C(F)F)n5)cc4)c3C2=O)C(=O)N1 (stereo not shown) [I-210, 2-[2-(Cyclopropylmethylamino)-4-pyridyl]-N-[3-(difluoromethyl)-1-[4-[[2-[2-[2-[[2-(2,6-dioxo-3-piperidyl)-1,3-dioxoisoindolin-4-yl]amino]ethoxy]ethoxy]ethylamino]methyl]phenyl]pyrazol-4-yl]oxazole-4-carboxamide]
Tmax (CD-1, mouse, plasma, sc, 30 mg/kg, mouse (CD1) sc 30 mg/kg, Mean, read-out: Tmax): 2.33 h | half-life (CD-1, mouse, plasma, sc, 30 mg/kg, mouse (CD1) sc 30 mg/kg, individual Mouse 7-9): 4.34 h | AUC(0-inf) (CD-1, mouse, plasma, sc, 30 mg/kg, mouse (CD1) sc 30 mg/kg, individual Mouse 7-9, read-out: AUCInf): 1000 ng·h/mL | AUC(0-t) (CD-1, mouse, plasma, sc, 30 mg/kg, mouse (CD1) sc 30 mg/kg, individual Mouse 7-9, read-out: AUClast): 980 ng·h/mL | Cmax (CD-1, mouse, plasma, sc, 30 mg/kg, mouse (CD1) sc 30 mg/kg, individual Mouse 7-9, read-out: Cmax): 107 ng/mL | MRT inf (CD-1, mouse, plasma, sc, 30 mg/kg, mouse (CD1) sc 30 mg/kg, individual Mouse 7-9, read-out: MRTInf_obs): 6.06 h | Concentration (mouse (CD1) iv 2 mg/kg, 5 min, individual Mouse 1-3, 2 mg/kg): 495 ng/mL and 692 ng/mL | Concentration (mouse (CD1) iv 2 mg/kg, 0.25 h, individual Mouse 1-3, 2 mg/kg): 382 ng/mL and 424 ng/mL | Concentration (mouse (CD1) iv 2 mg/kg, 0.5 h, individual Mouse 1-3, 2 mg/kg): 238 ng/mL and 306 ng/mL | Concentration (mouse (CD1) iv 2 mg/kg, 1 h, individual Mouse 1-3, 2 mg/kg): 164 ng/mL and 195 ng/mL | Concentration (mouse (CD1) iv 2 mg/kg, 2 h, individual Mouse 1-3, 2 mg/kg): 92.5 ng/mL and 90.7 ng/mL | Concentration (mouse (CD1) iv 2 mg/kg, 4 h, individual Mouse 1-3, 2 mg/kg): 20.2 ng/mL and 25.6 ng/mL | Concentration (mouse (CD1) iv 2 mg/kg, 8 h, individual Mouse 1-3, 2 mg/kg): 4.92 ng/mL and 4.93 ng/mL | Concentration (mouse (CD1) iv 2 mg/kg, 24 h, individual Mouse 1-3): BLOQ | AUC_%Extrap_obs (mouse (CD1) iv 2 mg/kg, Mean): 1.66% | AUClast/D (mouse (CD1) iv 2 mg/kg, Mean): 331 h·ng/mL per mg/kg | Cl_obs (mouse (CD1) iv 2 mg/kg, Mean): 49.9 mL/min/kg | Vss_obs (mouse (CD1) iv 2 mg/kg, Mean): 4.48 L/kg | AUCInf [1]: 597 ng·h/mL and 706 ng·h/mL | AUC_%Extrap_obs [1]: 1.76% (2×) and 1.47% | AUClast [1]: 586 ng·h/mL and 695 ng·h/mL | AUClast/D [1]: 351 h·ng/mL per mg/kg and 293 h·ng/mL per mg/kg and 348 h·ng/mL per mg/kg | C0 [1]: 563 ng/mL and 884 ng/mL | Cl_obs [1]: 46.7 mL/min/kg and 55.8 mL/min/kg and 47.2 mL/min/kg | MRTInf_obs [1]: 1.41 h | T1/2 [1]: 1.48 h and 1.46 h | Vss_obs [1]: 4.42 L/kg and 5.04 L/kg and 4.00 L/kg | Concentration (mouse (CD1) po 30 mg/kg, 0.25 h, individual Mouse 4-6, 30 mg/kg): 55.9 ng/mL and 23.7 ng/mL and 12.8 ng/mL | Concentration (mouse (CD1) po 30 mg/kg, 0.5 h, individual Mouse 4-6, 30 mg/kg): 120 ng/mL and 23.0 ng/mL and 22.2 ng/mL | Concentration (mouse (CD1) po 30 mg/kg, 1 h, individual Mouse 4-6, 30 mg/kg): 153 ng/mL and 16.9 ng/mL and 45.1 ng/mL | Concentration (mouse (CD1) po 30 mg/kg, 2 h, individual Mouse 4-6, 30 mg/kg): 91.1 ng/mL and 112 ng/mL | Concentration (mouse (CD1) po 30 mg/kg, 4 h, individual Mouse 4-6, 30 mg/kg): 143 ng/mL and 123 ng/mL | Concentration (mouse (CD1) po 30 mg/kg, 8 h, individual Mouse 4-6, 30 mg/kg): 34.8 ng/mL and 17.1 ng/mL and 16.4 ng/mL | Concentration (mouse (CD1) po 30 mg/kg, 24 h, individual Mouse 4-6): BLOQ | AUC_%Extrap_obs (mouse (CD1) po 30 mg/kg, Mean): 9.8% | AUClast/D (mouse (CD1) po 30 mg/kg, Mean): 22.5 h·ng/mL per mg/kg | F (mouse (CD1) po 30 mg/kg, Mean): 7.47% | AUCInf [2]: 681 ng·h/mL and 662 ng·h/mL | AUC_%Extrap_obs [2]: 14.2% and 7.97% and 7.15% | AUClast [2]: 627 ng·h/mL and 615 ng·h/mL | AUClast/D [2]: 26.2 h·ng/mL per mg/kg and 20.9 h·ng/mL per mg/kg and 20.5 h·ng/mL per mg/kg | Cmax [2]: 143 ng/mL and 123 ng/mL | F [2]: 9.09% and 6.76% and 6.57% | MRTInf_obs [2]: 4.24 h and 3.97 h | T1/2 [2]: 2.20 h and 2.00 h | Concentration (mouse (CD1) sc 30 mg/kg, 0.25 h, individual Mouse 7-9, 30 mg/kg): 93.0 ng/mL and 70.1 ng/mL | Concentration (mouse (CD1) sc 30 mg/kg, 0.5 h, individual Mouse 7-9, 30 mg/kg): 101 ng/mL and 66.6 ng/mL | Concentration (mouse (CD1) sc 30 mg/kg, 1 h, individual Mouse 7-9, 30 mg/kg): 107 ng/mL and 76.5 ng/mL | Concentration (mouse (CD1) sc 30 mg/kg, 2 h, individual Mouse 7-9, 30 mg/kg): 115 ng/mL and 81.1 ng/mL | Concentration (mouse (CD1) sc 30 mg/kg, 4 h, individual Mouse 7-9, 30 mg/kg): 91.8 ng/mL and 105 ng/mL | Concentration (mouse (CD1) sc 30 mg/kg, 8 h, individual Mouse 7-9, 30 mg/kg): 49.0 ng/mL and 42.0 ng/mL | Concentration (mouse (CD1) sc 30 mg/kg, 24 h, individual Mouse 7-9, 30 mg/kg): 2.88 ng/mL and 2.05 ng/mL | AUC_%Extrap_obs (mouse (CD1) sc 30 mg/kg, Mean): 1.60% | AUClast/D (mouse (CD1) sc 30 mg/kg, Mean): 33.9 h·ng/mL per mg/kg | F (mouse (CD1) sc 30 mg/kg, Mean): 10.3% | AUCInf [3]: 1119 ng·h/mL and 983 ng·h/mL | AUC_%Extrap_obs [3]: 2.26% and 1.48% and 1.07% | AUClast [3]: 1102 ng·h/mL and 973 ng·h/mL | AUClast/D [3]: 32.7 h·ng/mL per mg/kg and 36.7 h·ng/mL per mg/kg and 32.4 h·ng/mL per mg/kg | Cmax [3]: 115 ng/mL and 105 ng/mL | F [3]: 9.94% and 11.1% and 9.75% | MRTInf_obs [3]: 5.82 h and 5.73 h | T1/2 [3]: 3.98 h and 3.56 h | Tmax [3]: 1 h
